Assay results as given in patent publication US20110160266A1, “Novel Anti-Arrhythmia Agent” (THE UAB RESEARCH FOUNDATION, priority 2008, published 2011).
Several values for one entry are separate records, joined by “and”; a condition that tells them apart may be missing. Equal values may be shown once. Where a name gives a salt, the structure may show the parent alone. Marks after values point to notes of the source that are not given here.

Legend:
[1] = system: isolated, superfused rat left atria
Method: Left atria were isolated from male Sprague-Dawley rats (325 to 400 g) under IP pentobarbital anesthesia (0.1 g/kg). Isolated left atria were superfused at 30° C. in Krebs-Henseleit (KH) buffer of the following mM composition: NaCl, 118; NaHCO3, 27; KCl, 4.8; MgSO4, 1.2; KH2PO4, 1.0; CaCl2, 1.8; and glucose, 11.1. Nearly isometric left atrial forces of contraction were measured as described.
Isolated superfused left atria were paced at 3 Hz. 2-APB was added to atrial superfusates from 0.015 or 0.15M DMSO stock solutions to achieve concentrations of 0, 2, 7.5, 15, or 22 μM (n=5 to 10 atria per concentration). Changes in atrial mechanical force were recorded during a subsequent 15 min superfusion.
Two groups of 5 to 6, 3 Hz paced atria were superfused in KH and exposed to 0 or 15 μM 2-APB for 10 min. The pacing stimulus was interrupted for 5 min and the number of spontaneous mechanical events (SMEs), defined as increases in mechanical force occurring in the absence of pacing, were measured as was the postrest potentiation response (PRP).
To determine whether diastolic interval affected the interaction between 2-APB and left atria, atrial pacing was decreased to 0.1 Hz, and 0, 7.5, or 22 μM 2-APB was added to the superfusate (n=6-8 per group). Superfusions continued for 15 min, and changes in atrial mechanical function were observed.
To establish whether SMA was reversible, atria (n=7) were paced at 0.1 Hz, exposed to 15 μM 2-APB for 10 min, and washed with KH. The effect of removing 2-APB on atrial mechanical function was recorded.

[2] = system: rat left atria
Method: The initial potentiated beat following prolonged rest (i.e., the PRP maximum force of contraction) reflects activator calcium available for SR release. The PRP response was used to obtain an indirect measure of left atrial SR calcium under our conditions.
Left atria (n=6) were superfused in KH, paced at 0.1 Hz, and subjected to PRP. Superfusion proceeded for another 35 min, and a second PRP was performed. These 2 forces were compared to assure the mechanical stability of our preparations.
One group (n=8) was superfused in KH, paced at 0.1 Hz, and their maximum force of contraction was measured.
A second group (n=8) was paced at 0.1 Hz in KH and subjected to PRP. They were exposed to 22 μM 2-APB and, after the appearance of SMA, were washed with KH containing 22 μM 2-APB and 82 mM sodium. Superfusion continued for 23 min and a second PRP was performed.
Control 0.1 Hz paced atria (n=8) were subjected to PRP and exposed to 400 μM DIDS, and a second PRP was performed 23 min later.
A group of atria (n=8) were paced at 0.1 Hz in KH and subjected to PRP. They were exposed to 22 μM 2-APB, 400 μM DIDS was added to the superfusate after the appearance of SMA, and a second PRP was performed 23 min later.

[3] = system: isolated rat left atria; experiment: Pharmacological activation of spontaneous tachycardic activity (STA): calcium-loading agents with or without 2-APB
Method: Male Sprague-Dawley rats (325-400 g) were anesthetized with intra-peritoneal pentobarbital (0.1 g/kg). Their right and left atria were isolated, superfused at 30° C. in Krebs-Henseleit buffer, and nearly isometric forces of contraction were measured from these muscles (Wolkowicz et al., 2002). 2-APB was prepared as a 150 mM dimethyl sulfoxide stock.
Left atria (n=8 per group) were paced at 3 Hz and (i) titrated with 0 to 30 nM isoproterenol (Ahlquist, 1970) or (ii) exposed to 3 μM forskolin (Laurenza et al., 1980). Left atrial force and frequency of contraction, the time to peak tension and relaxation times were recorded after a 3-5 min exposure to forskolin or to any concentration of isoproterenol. The 3 Hz pacing stimulus was interrupted at the end of these protocols to measure SMA. […]
Left atrial contraction and relaxation times were recorded at these five times, the pacing stimulus was stopped and rates of SMA were recorded. […] Atrial mechanical function was measured at these four times; the pacing stimulus then was stopped and rates of SMA were recorded.
Left atria (n=6 per group) were paced at 3 Hz, titrated with 0 to 300 nM (−)BayK 8644 ([…]-1,4-Dihydro-2,6-dimethyl-5-nitro-4-[2-(trifluormethyl)phenyl]-3-pyridinecarboxylic acid methyl ester; Franckowiak et al. 1985) or FPL-64176 (2,5-Dimethyl-4-[2-(phenylmethyl)benzoyl]-1H-pyrrole-3-carboxlic acid methyl ester); Zheng et al., 1991) and their mechanical function and rates of SMA were recorded after a 5 min exposure to any concentration of slow calcium channel activator.
Atrial mechanical function was recorded at this time; the pacing stimulus then was stopped and rates of SMA were recorded. […]
Left atria (n=7) were paced at 3 Hz, treated with 120 μM ouabain (Illanes and Marshall, 1964), and any change in mechanical function was recorded at a new steady state, ˜10 min later. […]

[4] = system: right ventricular muscle strips and right ventricular papillary muscles; experiment: Ventricular muscle model of SMA; set-up: species or system rats; settings: added to the superfusate in appropriate amounts; paced at 0.5 Hz
Description: To further establish this model as a general test for arrhythmic and anti-arrhythmic agents, right ventricular muscle strips and right ventricular papillary muscles were isolated from anesthetized rats using methods known to persons skilled in the art. These muscles were then superfused as described above and paced at 0.5 Hz.

[5] = system: rat left atria; experiment: Suppression of STA induced by 2-APB plus BayK 8644 or isoproterenol in left atria
Method: 3 Hz-paced left atria (n=9 per group) were superfused (i) in Krebs-Henseleit alone or (ii) they were treated with 20 μM 2-APB for 10 min, (iii) with 300 nM BayK 8644 for 10 min and with 20 μM 2-APB for 10 min, or (iv) they were treated with 300 nM BayK 8644 and 20 μM 2-APB for 10 min, then with 70 μM zatebradine (3-[3-[[2-(3,4-Dimethoxyphenyl)ethyl]methyl amino]propyl]-1,3,4,5-tetrahydro-7,8,-dimethoxy-2H-3-benzazepin-2-one hydrochloride) for 10 min (Baruscotti et al., 2005). Pacing was interrupted at these times and rates of SMA were recorded.
(§1) Left atria (n=9) were paced at 0.1 Hz, treated with 300 nM BayK 8644 for 5 min, then with 20 μM 2-APB for 10 min, and the pacing stimulus was stopped. These preparations then were incubated with six increasing concentrations of zatebradine (10-100 μM) for 3-5 min at each concentration, and rates of SMA were recorded. Untreated right atria (n=9) also were titrated with zatebradine and its effect on contraction frequency was recorded.
To test whether zatebradine affects left atrial force of contraction, two groups of left atria (n=9 per group) were paced at 3 Hz and treated with 300 nM BayK 8644. Five minutes later one group was incubated with six increasing concentrations of zatebradine (10-100 μM) for 3-5 min at each concentration, and forces of contraction were recorded. A second group was treated with BayK 8644 but not zatebradine, and forces of contraction were recorded at corresponding times.
(§2) To test whether zatebradine affects the SMA occurring in the presence of 2-APB and isoproterenol, left atria (n=7) were paced at 0.1 Hz, treated with 30 nM isoproterenol for 5 min, then with 20 μM 2-APB for 10 min, and the pacing stimulus was stopped. Rates of SMA were recorded, these left atria were exposed to 70 μM zatebradine for 10 min, and rates of SMA were recorded again. A group of right atria (n=7) also were exposed to 30 nM isoproterenol for 5 min and then to 70 μM zatebradine for 10 min. Right atrial contraction frequency was recorded at these two times.
(§3) To test whether ZD-7288, an If inhibitor structurally unrelated to zatebradine (Baruscotti et al., 2005; Sanders et al., 2006) affects the SMA occurring in the presence of 2-APB and BayK 8644, rat left atria (n=7) were treated with 300 nM BayK 8644 for 5 min, then with 20 μM 2-APB for 10 min, and the rates of ectopic activity were recorded. These atria then were incubated with six increasing concentrations of ZD-7288 (10-100 μM) for 3-5 min at each concentration, and the rates of SMA were recorded. Right atria (n=7) were titrated similarly with ZD-7288 (0-100 μM) and the change in their contraction frequency was recorded.
In these experiments, a 2-APB model system was used to simulate tachycardic abnormal automaticity. Specifically, superfused left atria were treated sequentially with 300 nM BayK 8644, an activator of voltage-dependent calcium entry, which loads myocytes with calcium, and then with 2-APB (20 μM) to activate the putative myocyte system for abnormal automaticity. […] SKF-96365 (10 μM) was added to the superfusate. SKF-96365 reversed STA in these left atria within 2-3 min and the muscle became quiescent in the absence of pacing (FIG. 34, “Rest”).
Additional experiments determined the concentration-dependence of SKF-96365 inhibition of STA. These experiments were performed as described above except that various concentrations of SKF-96365 were added to the left atrial superfusate (about 10-70 μM). Exposing left atria to various concentrations of SKF-96365 reversed STA (FIG. 35).

[6] = system: rat right atria; experiment: Right atrial spontaneous contraction frequency
Method: as §1, §2, §3

[7] = 2-APB values obtained during SMA, mean ± SEM

## NCCOB(c1ccccc1)c1ccccc1 [2-APB, 2-aminoethoxydiphenyl borate]
[1]; 0.1 Hz, 15 μM 2-APB, washed with KH, data not shown
  reversibility of SMA on removing 2-APB from the superfusate: restored regular atrial mechanical function
[1]; [7]
  T0.5R (time to 50% relaxation): 35 ± 0.8 ms
  T0.9R (time to 90% relaxation): 74 ± 0.8 ms
  TPT (time to peak tension): 59 ± 1.6 ms
[1]; 3 Hz paced, 2-APB 10 min, then 5 min rest
  2-APB concentration giving numerous SMEs during rest and a blunted post-rest response: ≥ 15 µM
[1]; atria paced at 0.1 Hz
  2-APB concentration giving intermittent SMEs: ≤ 10 µM
  2-APB concentration giving repeated SMEs giving way to sustained SMA: > 15 µM
[1]; left atria paced at 3 Hz, 5 to 10 min of exposure
  2-APB concentration producing sporadic/intermittent spontaneous mechanical events: > 10 µM and > 7.5 µM
[2]
  maximum force of left atrial contraction vs values before the addition of 2-APB: significantly decreased
[3]; 300 nM BayK 8644 and 20 μM 2-APB
  rate of tachycardic response, Pre-washing: 224±12 contractions/min
[3]; 20 μM 2-APB alone or with 30 nM isoproterenol, 3 μM forskolin, 300 nM BayK 8644, 300 nM FPL-64176 or 120 μM ouabain
  rate of SMA/STA in the absence of pacing: 47±6 contractions/min and ~50 contractions/min
[3]; concentrations per footnote
  T0.5R (time to 50% relaxation): 35.9 msc
  T0.9R (time to 90% relaxation): 68.4 msc
  TPT (time to peak tension): 57.5 msc
[3]; spontaneous atrial mechanical events, concentrations per footnote
  SMA Rate: 47^‡ SMEs per minute
[3]; washed with superfusate containing slow calcium channel activator but no 2-APB, 5 min later
  rate of tachycardic response, Post-washing: 0.7±0.4 contractions/min
[4]
  induction of ventricular SMA: ventricular SMA was observed

## c1ccc(B(OB(c2ccccc2)c2ccccc2)c2ccccc2)cc1 [DPBA, diphenyl boronic anhydride]
[4]
  induction of ventricular SMA: ventricular SMA was observed

## COc1ccc(CCN(C)CCCN2CCc3cc(OC)c(OC)cc3CC2=O)cc1OC [zatebradine, 3-[3-[[2-(3,4-Dimethoxyphenyl)ethyl]methylamino]propyl]-1,3,4,5-tetrahydro-7,8,-dimethoxy-2H-3-benzazepin-2-one hydrochloride]
[5]; 300 nM BayK 8644 + 20 μM 2-APB, zatebradine 70 μM, ZD-7288 10-100 μM, SKF-96365 about 10-70 μM
  effect on STA initiated by BayK 8644 and 2-APB: significantly decreases
[5]; 300 nM BayK 8644, 10-100 μM zatebradine
  effect on left atrial force of contraction: does not affect left atrial force of contraction
[5]; 3 Hz-paced, 300 nM BayK 8644, titrated with 10-100 μM zatebradine
  left atrial force of contraction, % of initial force: 95±3.8 % of initial force
[5]; Rattus norvegicus, intact left atria exposed to BayK 8644 and 2-APB, linear decrease
  IC50: 58 ± 5 µM
[5]; isoproterenol + 2-APB + 70 μM zatebradine for 10 min
  rate of appendage STA with zatebradine: 110±24.5 contractions/min
[6]; 30 nM isoproterenol, then 70 μM zatebradine for 10 min
  right atrial contraction frequency: 212±9.7 contractions/min
[6]; Rattus norvegicus, untreated right atria titrated with zatebradine, read-out: IC50 for decrease of right atrial contraction frequency
  IC50: 12 ± 1.1 µM
[6]; zatebradine titration
  maximum decrease of right atrial contraction frequency: ~50%
